Values of other authors as cited in PMC3889329 (Diabetes Therapy, 2013).

Test system: healthy subjects
Details: cited from earlier work

For `Cc1ccc([C@@H]2O[C@H](CO)[C@@H](O)[C@H](O)[C@H]2O)cc1Cc1ccc(-c2ccc(F)cc2)s1` [Canagliflozin], the “Maximal UGE” value (200–800 mg qd, healthy subjects) is given as 70 g/day.
For `OC[C@H]1O[C@@H](c2ccc(F)c(Cc3cc4ccccc4s3)c2)[C@H](O)[C@@H](O)[C@@H]1O` [Ipragliflozin], the “Maximum UGE” value (multiple doses of 5–600 mg, healthy volunteers) is given as “approximately 59 g/day”.
